Data from patent publication US7713994B2 (Wyeth LLC, priority 2005, dated 2010).
Where two headings read alike, the source gives them in different places.

Legend:
[1] = system: HCT-116; assay: Cytotoxicity assay (SRB), HCT-116; format: cell-based; details: Homo sapiens, HCT-116, 72 h, HCT116 cells, SRB, read-out: In Vitro Cellular Activity IC50 HCT116
Method in brief: (§1)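 BT474 (12000 cells/well) was treated for 6 days, whereas HCT-116 (4000), LoVo (6000) and MCF-7 (6000) were treated for 3 days, all in RPMI 1640 containing 5% FBS. Surviving-cell percentage came from SRB dye binding measured at 540 nm.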

[2] = system: MCF-7; assay: Cytotoxicity assay (SRB), MCF-7; format: cell-based; details: Homo sapiens, MCF7, 72 h, MCF-7 cells, SRB, read-out: In Vitro Cellular Activity IC50 MCF-7
Method in brief: as §1

[3] = system: LoVo; assay: Cytotoxicity assay (SRB), LoVo; format: cell-based; details: Homo sapiens, LoVo, 72 h, LoVo cells, SRB, read-out: In Vitro Cellular Activity IC50 LOVO
Method in brief: as §1

[4] = molecular target: T1, cyclin D1/cdk 4 enzyme (Homo sapiens, UniProt P11802); assay: CDK4 ELISA kinase assay (phospho-Rb ser 795 detection); format: biochemical
T1 construct: made in house; host or cells: Sf9 insect cells, recombinant baculovirus
Method in brief: (§2)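 Wells were coated overnight with GST-Rb C-terminal fragment, then blocked. Compound (10 ug/ml final) and cyclin/CDK enzyme from baculovirus-infected Sf9 cells with 200 μM ATP reacted 1 h at 30° C. Ser795 phosphorylation was detected by ELISA at 450 nm.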

[5] = molecular target: T2, cyclin E/CDK2 enzyme (Homo sapiens, UniProt P24941); assay: CDK2 ELISA kinase assay (phospho-Rb ser 795 detection); format: biochemical
T2 construct: made in house; host or cells: Sf9 insect cells, recombinant baculovirus
Method in brief: as §2

[6] = molecular target: T3, cyclin B/CDK1 enzyme (Homo sapiens, UniProt P06493); assay: CDK1 ELISA kinase assay (phospho-Rb ser 795 detection); format: biochemical
T3 construct: purchased New England BioLabs; host or cells: Sf9 insect cells, recombinant baculovirus
Method in brief: as §2

[7] = system: BT474; assay: Cytotoxicity assay (SRB), BT474; format: cell-based
Method in brief: as §1

[8] = In Vitro Enzyme Assays, 200 μM ATP, read-out: CDK4 IC50
[9] = In Vitro Enzyme Assays, read-out: CDK2 IC50
[10] = In Vitro Enzyme Assays, read-out: CDK1 IC50
[11] = Homo sapiens, BT-474, 144 h, BT474 cells, SRB, 6 days; read-out: In Vitro Cellular Activity IC50 BT474
[12] = In Vitro Enzyme Assay, cyclin D1/cdk 4, read-out: CDK4 IC50
[13] = In Vitro Enzyme Assay, cyclin E/CDK2, read-out: CDK2 IC50
[14] = In Vitro Enzyme Assay, cyclin B/CDK1, read-out: CDK1 IC50
[15] = Homo sapiens, BT-474, 144 h, BT474 cells, 6 days, SRB; read-out: In Vitro Cellular Activity IC50 BT474

T1 sequence (P11802 whole entry, species assumed): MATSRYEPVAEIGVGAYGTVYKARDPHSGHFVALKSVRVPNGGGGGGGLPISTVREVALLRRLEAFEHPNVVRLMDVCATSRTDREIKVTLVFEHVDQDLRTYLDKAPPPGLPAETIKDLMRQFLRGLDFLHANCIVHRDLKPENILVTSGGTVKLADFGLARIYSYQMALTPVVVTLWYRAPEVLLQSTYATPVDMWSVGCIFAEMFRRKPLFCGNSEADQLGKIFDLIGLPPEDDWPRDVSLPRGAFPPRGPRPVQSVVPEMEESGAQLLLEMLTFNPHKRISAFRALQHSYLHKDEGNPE
T1 sequence (P24385 whole entry partner, species assumed): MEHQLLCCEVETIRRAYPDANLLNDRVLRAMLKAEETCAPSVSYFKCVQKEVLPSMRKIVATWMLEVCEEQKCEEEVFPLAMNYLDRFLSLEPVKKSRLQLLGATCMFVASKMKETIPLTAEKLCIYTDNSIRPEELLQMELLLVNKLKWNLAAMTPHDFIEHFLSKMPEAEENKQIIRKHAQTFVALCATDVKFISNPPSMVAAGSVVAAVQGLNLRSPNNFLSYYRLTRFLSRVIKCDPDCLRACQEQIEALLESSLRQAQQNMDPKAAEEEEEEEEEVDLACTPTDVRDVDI
T3 sequence (P06493 whole entry): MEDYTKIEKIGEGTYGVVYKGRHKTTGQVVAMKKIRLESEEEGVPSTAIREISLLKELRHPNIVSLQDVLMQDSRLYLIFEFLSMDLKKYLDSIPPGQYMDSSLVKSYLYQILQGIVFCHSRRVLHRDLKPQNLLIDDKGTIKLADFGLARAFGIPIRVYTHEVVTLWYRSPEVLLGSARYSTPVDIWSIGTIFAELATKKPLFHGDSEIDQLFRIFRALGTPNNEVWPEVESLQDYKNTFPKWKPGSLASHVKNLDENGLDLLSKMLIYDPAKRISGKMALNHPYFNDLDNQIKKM
T3 sequence (P14635 whole entry partner): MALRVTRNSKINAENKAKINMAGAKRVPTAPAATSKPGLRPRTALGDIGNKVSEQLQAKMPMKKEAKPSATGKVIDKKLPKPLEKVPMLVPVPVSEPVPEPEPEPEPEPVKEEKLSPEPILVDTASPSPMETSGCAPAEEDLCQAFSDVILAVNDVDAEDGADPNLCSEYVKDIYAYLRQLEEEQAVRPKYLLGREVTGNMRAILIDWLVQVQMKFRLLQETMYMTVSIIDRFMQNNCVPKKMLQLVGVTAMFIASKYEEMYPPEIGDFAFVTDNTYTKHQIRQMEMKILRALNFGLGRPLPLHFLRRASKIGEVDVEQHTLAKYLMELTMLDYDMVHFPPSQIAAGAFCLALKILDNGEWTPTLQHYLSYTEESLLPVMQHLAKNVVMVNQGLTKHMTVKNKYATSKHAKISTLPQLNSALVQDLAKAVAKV

Row | SMILES | IC50 ([1]; three days) [µM] | IC50 ([2]; three days) [µM] | IC50 ([3]; three days) [µM] | IC50 [4, 8] [µM] | IC50 [5, 9] [µM] | IC50 [6, 10] [µM] | IC50 [7, 11] [µM] | melting point [°C] | IC50 ([1]; 3 days) [µM] | IC50 ([2]; 3 days) [µM] | IC50 ([3]; 3 days) [µM] | IC50 [4, 12] [µM] | IC50 [5, 13] [µM] | IC50 [6, 14] [µM] | IC50 [7, 15] [µM]
1 | O=C1NC(=O)c2ccc(-c3ccc(CN4CCCCC4)cc3)cc2C1=CNc1ccc(CN2CCCCC2)cc1 [Example 125, 6-(4-Piperidin-1-ylmethyl-phenyl)-4-[(4-piperidin-1-ylmethyl-phenylamino)-methylene]-4H-isoquinoline-1,3-dione] | 1.2 | 1.8 | 1.1 | 44.4 | > 50 | > 50 | 3.9 | 159 to 160 | – | – | – | – | – | – | –
2 | COC[C@@H]1CCCN1Cc1ccc(N/C=C2\C(=O)NC(=O)c3ccc(I)cc32)nc1 [Example 478, (4Z)-6-Iodo-4-{[(5-{[(2S)-2-(methoxymethyl)pyrrolidin-1-yl]methyl}pyridin-2-yl)amino]methylene}isoquinoline-1,3(2H,4H)-dione] | – | – | – | – | – | – | – | 185 to 186 | 24.2 | 44.8 | 46.8 | 17.6 | > 50 | > 50 | > 50
3 | O=C1NC(=O)c2ccc(I)cc2/C1=C/NCc1ccc(OC(F)F)c(O)c1 [Example 267] | 3.7 | 4.8 | 3.7 | 0.008 | 1.7 | 16.5 | 3.5 | 254 to 255 | – | – | – | – | – | – | –
4 | CCCOc1ccc(CN/C=C2\C(=O)NC(=O)c3ccc(-c4ccc(F)cc4)cc32)cc1O [Example 192, (4Z)-6-(4-Fluorophenyl)-4-{[(3-hydroxy-4-propoxybenzyl)amino]methylene}-isoquinoline-1,3(2H,4H)-dione] | 6.8 | 2.4 | 40 | 0.04 | > 50 | > 50 | 16 | 194 to 195 | – | – | – | – | – | – | –
5 | Cc1cc(N/C=C2\C(=O)NC(=O)c3ccc(-c4ccsc4)cc32)cnc1N1C[C@@H](C)N[C@@H](C)C1 [Example 356, (4Z)-4-[({6-[(3R,5S)-3,5-Dimethylpiperazin-1-yl]-5-methylpyridin-3-yl}amino)methylene]-6-thien-3-ylisoquinoline-1,3(2H,4H)-dione] | 1.6 | 2.7 | 2.8 | 0.39 | > 50 | > 50 | 3 | 219 to 220 | – | – | – | – | – | – | –
6 | O=C1NC(=O)c2ccc(-c3ccsc3)cc2/C1=C/Nc1ccc(N2CCN3CCC[C@H]3C2)c(F)c1 [Example 382, (4Z)-4-[({3-Fluoro-4-[(8aS)-hexahydropyrrolo[1,2-a]pyrazin-2(1H)-yl]phenyl}amino)-methylene]-6-thien-3-ylisoquinoline-1,3(2H,4H)-dione] | 1.2 | 2.7 | 3.7 | 0.29 | > 50 | > 50 | 2.7 | 208 to 209 | – | – | – | – | – | – | –
7 | CN(C)CCCN1CCC(c2ccc(N/C=C3\C(=O)NC(=O)c4ccc(I)cc43)cc2)CC1 [Example 425, (4Z)-4-{[(4-{1-[3-(Dimethylamino)propyl]piperidin-4-yl}phenyl)amino]methylene}-6-iodoisoquinoline-1,3(2H,4H)-dione] | – | – | – | 0.36 | 37.1 | 44.4 | – | 139 to 140 | 0.6 | 2.6 | 1.2 | – | – | – | 1.5
8 | COC1CCN(Cc2ccc(N/C=C3\C(=O)NC(=O)c4ccc(-c5ccc(F)cc5)cc43)cc2)CC1 [Example 395, (4Z)-6-(4-Fluorophenyl)-4-[({4-[(4-methoxypiperidin-1-yl)methyl]phenyl}amino)methylene]isoquinoline-1,3(2H,4H)-dione] | – | – | – | 0.14 | > 50 | > 50 | – | 188 to 189 | 2.3 | 1.4 | 2.8 | – | – | – | 1.49
9 | COC[C@@H]1CCCN1c1ccc(CN/C=C2\C(=O)NC(=O)c3ccc(I)cc32)cc1O [Example 523, (4Z)-4-[({3-Hydroxy-4-[(2S)-2-(methoxymethyl)pyrrolidin-1-yl]benzyl}amino)methylene]-6-iodoisoquinoline-1,3(2H,4H)-dione] | – | – | – | – | – | – | – | 120 to 121 | 6.4 | 7.3 | 6.2 | 0.2 | 31.1 | > 50 | 5.7
